Experiments:
[1] = osmotic coefficient (dimensionless); mn = molality of the nth substance listed, in mol/kg; settings: 298.15 K, Liquid, isopiestic method
[2] = mean ionic activity coefficient (dimensionless); mn = molality of the nth substance listed, in mol/kg; settings: 298.15 K, Liquid, Isopiestic method

CC[N+](CC)(CC)C(C)(C)C [N,N,N-triethyl-2-methyl-2-propanaminium] + O
Settings | mean ionic activity coefficient, [2] | osmotic coefficient, [1]
m1 = 0.0342 | 0.7642 | 0.899
m1 = 0.0403 | 0.7444 | 0.891
m1 = 0.0449 | 0.7306 | 0.88
m1 = 0.0576 | 0.6966 | 0.862
m1 = 0.0639 | 0.6816 | 0.853
m1 = 0.0679 | 0.6725 | 0.847
m1 = 0.0754 | 0.6564 | 0.841
m1 = 0.088 | 0.6318 | 0.832
m1 = 0.0953 | 0.6187 | 0.82
m1 = 0.0994 | 0.6116 | 0.824
m1 = 0.1082 | 0.5972 | 0.808
m1 = 0.1645 | 0.5222 | 0.771
m1 = 0.1658 | 0.5208 | 0.771
m1 = 0.195 | 0.4905 | 0.75
m1 = 0.2257 | 0.4629 | 0.731
m1 = 0.2308 | 0.4586 | 0.723
m1 = 0.271 | 0.4282 | 0.706
m1 = 0.3095 | 0.4031 | 0.678
m1 = 0.3407 | 0.3851 | 0.671
m1 = 0.3517 | 0.3792 | 0.668
m1 = 0.383 | 0.3635 | 0.651
m1 = 0.4265 | 0.3439 | 0.634
m1 = 0.4648 | 0.3286 | 0.62
m1 = 0.5151 | 0.3106 | 0.604
m1 = 0.553 | 0.2985 | 0.592
m1 = 0.5917 | 0.2871 | 0.584
m1 = 0.61 | 0.2821 | 0.577
m1 = 0.7078 | 0.2583 | 0.554
m1 = 0.7607 | 0.2473 | 0.541
m1 = 0.8399 | 0.2327 | 0.524
m1 = 0.8805 | 0.2259 | 0.52
m1 = 0.9759 | 0.2118 | 0.509
m1 = 1.08 | 0.1986 | 0.49
m1 = 1.162 | 0.1896 | 0.487
m1 = 1.272 | 0.1791 | 0.473
m1 = 1.391 | 0.1693 | 0.459
m1 = 1.56 | 0.1579 | 0.452
m1 = 1.693 | 0.1504 | 0.455
m1 = 1.771 | 0.1466 | 0.449
m1 = 1.786 | 0.1459 | 0.454
m1 = 1.83 | 0.144 | 0.45
m1 = 1.924 | 0.1401 | 0.453
m1 = 1.99 | 0.1377 | 0.451
m1 = 2.231 | 0.1303 | 0.465

Reference: the NIST ThermoML archive (doi:10.1021/je2009413)
